Data published in PubChem BioAssay (NCI).
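Five concentrations, 48 hours, 96-well plates. The concentration for full growth arrest is given as TGI.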

Assays:
Assay in all cases: NCI-60 cell line screen, 48 h
OVCAR-8 ovarian = tested on: OVCAR-8 ovarian
RXF 393 renal = tested on: RXF 393 renal
SF-268 CNS = tested on: SF-268 CNS
EKVX NSCLC = tested on: EKVX NSCLC
HT29 colon = tested on: HT29 colon
MDA-MB-435 = tested on: MDA-MB-435
SF-295 CNS = tested on: SF-295 CNS
SK-MEL-28 melanoma = tested on: SK-MEL-28 melanoma
SR leukemia = tested on: SR leukemia
DU-145 prostate = tested on: DU-145 prostate
HOP-92 NSCLC = tested on: HOP-92 NSCLC
RPMI-8226 leukemia = tested on: RPMI-8226 leukemia
SW-620 colon = tested on: SW-620 colon
T-47D breast = tested on: T-47D breast
BT-549 breast = tested on: BT-549 breast
HCT-15 colon = tested on: HCT-15 colon
NCI-H522 lung = tested on: NCI-H522 lung

Measured: TGI

Cc1cc(=O)[nH]c(NN2C(Cl)C(=O)C2c2ccc(Cl)cc2)n1 (configuration not stated)
86.9 µM: BT-549 breast
54.9 µM: HT29 colon
> 71.7 µM: SW-620 colon
45.1 µM: RXF 393 renal
27.7 µM: HOP-92 NSCLC
60 µM: MDA-MB-435
> 53.8 µM: HCT-15 colon
6.22 µM: SR leukemia
49.6 µM: SK-MEL-28 melanoma
> 100 µM: SF-295 CNS
56.5 µM: OVCAR-8 ovarian
> 66.2 µM: SF-268 CNS
35 µM: EKVX NSCLC
33.1 µM: RPMI-8226 leukemia
43.4 µM: T-47D breast
66.6 µM: DU-145 prostate

COc1ccc(NS(=O)CCCc2ccccc2)cc1 (configuration not stated)
71.9 µM: T-47D breast
> 100 µM: OVCAR-8 ovarian | NCI-H522 lung | SF-268 CNS | EKVX NSCLC | HT29 colon | MDA-MB-435 | SF-295 CNS | SK-MEL-28 melanoma | SR leukemia | DU-145 prostate | RPMI-8226 leukemia | SW-620 colon | BT-549 breast | HCT-15 colon

COCn1c2ccc(OC(C)=O)cc2c2c(=O)oc(N(C)C)nc21
> 100 µM: OVCAR-8 ovarian | NCI-H522 lung | RXF 393 renal | EKVX NSCLC | HT29 colon | MDA-MB-435 | SF-295 CNS | SK-MEL-28 melanoma | SR leukemia | DU-145 prostate | HOP-92 NSCLC | RPMI-8226 leukemia | SW-620 colon | T-47D breast | BT-549 breast | HCT-15 colon

CCCC(=O)NC1=C(NCC)C(=O)c2ccccc2C1=O
> 100 µM: NCI-H522 lung | RXF 393 renal | SF-268 CNS | HT29 colon | SF-295 CNS | SK-MEL-28 melanoma | SR leukemia | DU-145 prostate | HOP-92 NSCLC | RPMI-8226 leukemia | SW-620 colon | T-47D breast | BT-549 breast | HCT-15 colon
78.1 µM: MDA-MB-435

CC1CCCc2c(C#N)c(N)nc(-c3ccc(Cl)cc3)c21 (configuration not stated)
39.2 µM: RPMI-8226 leukemia
74.5 µM: T-47D breast
72.8 µM: SR leukemia
44.4 µM: HT29 colon
21.5 µM: RXF 393 renal
> 100 µM: OVCAR-8 ovarian | SF-268 CNS | EKVX NSCLC | MDA-MB-435 | SK-MEL-28 melanoma | DU-145 prostate | SW-620 colon | BT-549 breast | HCT-15 colon
49.2 µM: SF-295 CNS

CC1CC[C@@H](C(C)C)[C@H](Oc2nnc(C3OC(CO)C(O)C3O)o2)C1 (some centres not stated)
> 100 µM: OVCAR-8 ovarian | RXF 393 renal | SF-268 CNS | EKVX NSCLC | HT29 colon | MDA-MB-435 | SF-295 CNS | DU-145 prostate | HOP-92 NSCLC | RPMI-8226 leukemia | SW-620 colon | T-47D breast | BT-549 breast | HCT-15 colon

CCC1(CC)CC(=NNS(=O)(=O)c2ccc(C)cc2)C1
> 100 µM: OVCAR-8 ovarian | NCI-H522 lung | RXF 393 renal | SF-268 CNS | EKVX NSCLC | HT29 colon | MDA-MB-435 | SF-295 CNS | SK-MEL-28 melanoma | DU-145 prostate | HOP-92 NSCLC | SW-620 colon | T-47D breast | BT-549 breast | HCT-15 colon

CC(=O)Nc1ccccc1SCCSSCCSc1ccccc1NC(C)=O
73.7 µM: SF-295 CNS
41.1 µM: MDA-MB-435
76.8 µM: HT29 colon
34.3 µM: NCI-H522 lung
64.4 µM: HOP-92 NSCLC
92.9 µM: T-47D breast
42.2 µM: RPMI-8226 leukemia | HCT-15 colon
> 100 µM: OVCAR-8 ovarian | RXF 393 renal | SF-268 CNS | EKVX NSCLC | SR leukemia | SW-620 colon | BT-549 breast
88.7 µM: DU-145 prostate

CSc1nc(N)c(NC2OC(CO)C(O)C2O)c(=O)[nH]1 (configuration not stated)
> 100 µM: OVCAR-8 ovarian | NCI-H522 lung | RXF 393 renal | SF-268 CNS | EKVX NSCLC | HT29 colon | MDA-MB-435 | SF-295 CNS | SK-MEL-28 melanoma | SR leukemia | DU-145 prostate | RPMI-8226 leukemia | SW-620 colon | T-47D breast | BT-549 breast | HCT-15 colon

O=c1oc2ccccc2cc1/C=N/N1C(=S)N(c2ccccc2)C(=Nc2ccccc2)C1=Nc1ccccc1
> 100 µM: OVCAR-8 ovarian | NCI-H522 lung | RXF 393 renal | SF-268 CNS | EKVX NSCLC | MDA-MB-435 | SF-295 CNS | SK-MEL-28 melanoma | SR leukemia | DU-145 prostate | HOP-92 NSCLC | RPMI-8226 leukemia | SW-620 colon | T-47D breast | BT-549 breast | HCT-15 colon

NC(N)=N/N=C/c1c(-c2ccccc2)nc2n1ccc1nc(-c3ccccc3)c(/C=N/N=C(N)N)n12
65.7 µM: EKVX NSCLC
> 100 µM: OVCAR-8 ovarian | NCI-H522 lung | RXF 393 renal | SF-268 CNS | HT29 colon | MDA-MB-435 | SF-295 CNS | SK-MEL-28 melanoma | DU-145 prostate | HOP-92 NSCLC | RPMI-8226 leukemia | SW-620 colon | T-47D breast | BT-549 breast | HCT-15 colon

O=C1C2CC=CCC2C(=O)N1n1c(-c2ccccc2)n[nH]c1=O (configuration not stated)
> 100 µM: OVCAR-8 ovarian | NCI-H522 lung | RXF 393 renal | SF-268 CNS | EKVX NSCLC | HT29 colon | MDA-MB-435 | SF-295 CNS | SR leukemia | HOP-92 NSCLC | RPMI-8226 leukemia | SW-620 colon | T-47D breast | BT-549 breast | HCT-15 colon

COc1cc(/C=C2/CCS(=O)(=O)c3ccc(C)cc3C2=O)cc(OC)c1OC
> 33.8 µM: HT29 colon
6.6 µM: RPMI-8226 leukemia
> 45.4 µM: SW-620 colon
> 49.2 µM: SF-268 CNS
42.1 µM: SF-295 CNS
> 39 µM: HCT-15 colon
12.4 µM: NCI-H522 lung
> 27.6 µM: DU-145 prostate
> 52.7 µM: T-47D breast
7.13 µM: SR leukemia
> 43.2 µM: HOP-92 NSCLC
> 27.2 µM: MDA-MB-435
30.2 µM: EKVX NSCLC
> 26.3 µM: BT-549 breast
11.5 µM: OVCAR-8 ovarian
> 37.4 µM: SK-MEL-28 melanoma

[N-]=[N+]=Nc1c(-c2ccccc2)c(Cl)nc2ccccc12
77.1 µM: BT-549 breast
52.5 µM: HT29 colon
> 100 µM: OVCAR-8 ovarian | NCI-H522 lung | RXF 393 renal | SF-268 CNS | EKVX NSCLC | MDA-MB-435 | SF-295 CNS | SK-MEL-28 melanoma | SR leukemia | HOP-92 NSCLC | RPMI-8226 leukemia | SW-620 colon | T-47D breast | HCT-15 colon

COc1ccc(NC(=O)/C(=N\NC(=O)C[n+]2ccccc2)c2c(O)c3ccc(O)cc3oc2=O)c([N+](=O)[O-])c1
> 100 µM: OVCAR-8 ovarian | NCI-H522 lung | SF-268 CNS | EKVX NSCLC | HT29 colon | MDA-MB-435 | SF-295 CNS | SK-MEL-28 melanoma | DU-145 prostate | HOP-92 NSCLC | RPMI-8226 leukemia | SW-620 colon | T-47D breast | BT-549 breast | HCT-15 colon
